According to patent US7385086B2 (priority 1997, dated 2008):
Values after ≈ are worked out from the molar mass of the structure shown. Where two headings read alike, the source gives them in different places.

What was measured:
[1] = tested on: M. tuberculosis (strain H37Rv); assay: MIC against M. tuberculosis strain H37Rv; assay type: cell-based; settings: Mycobacterium tuberculosis
[2] = tested on: M. bovis BCG cell wall; assay type: cell-based, Mycobacterium bovis; settings: dividing M. bovis BCG in the presence of III-50
[3] = tested on: M. bovis BCG; assay: microbe, parasite or virus in culture; assay type: cell-based; settings: Mycobacterium tuberculosis variant bovis BCG
[4] = tested on: mycolic acid synthesis in M. avium-intracellulare; assay: Metabolic labeling, two-dimensional TLC of mycolic acids, M. avium-intracellulare; assay type: cell-based, Mycobacterium avium-intracellulare; settings: M. avium-intracellulare cultures treated with 12.5 μg/ml
[5] = tested on: mycolic acid synthesis in M. bovis BCG; assay type: cell-based, Mycobacterium bovis; settings: M. bovis BCG in the presence of III-50
[6] = tested on: M. avium-intracellulare; assay: MIC / growth inhibition against M. avium-intracellulare; assay type: cell-based, Mycobacterium avium-intracellulare
[7] = M. tuberculosis strain H37Rv, in vitro, read-out: MIC MTB
[8] = M. avium-intracellulare, routinely isoniazid resistant
[9] = Mycobacterium avium-intracellulare, M. avium-intracellulare, in vitro, read-out: MIC MAI

| Structure (SMILES) | MIC [1, 7] [µg/mL] | also measured |
| --- | --- | --- |
| CCCCCCCCCCS(=O)(=O)C=CC(=O)OC (mixture of isomers) [JRG-I-31(mixture of cisand trans)] | 50 |  |
| CCCCCCCCCCS(=O)(=O)CCC(N)=O [DI-59] | > 25 |  |
| CCCCCCCCS(=O)(=O)CC(N)=O [HIII-50, n-Octanesulphonylacetamide] | 6.25 (≈ 26.6 µM) | MIC ([1]; H37RV): 6.5 µg/mL (≈ 27.6 µM); cell wall morphology in electron micrographs [2]: disruption of the cell wall; MIC [3]: 6.25 µg/mL (≈ 26.6 µM); MIC ([3]; read-out: MIC BCG): 6.25 µg/mL (≈ 26.6 µM); mycolic acids by phosphorimage of 2D TLC [4]: undetectable; mycolic acids by phosphorimage of 2D TLC [5]: significantly reduced; growth inhibition [6, 8]: inhibits; MIC [6, 9]: 25 µg/mL (≈ 106 µM) |
| CCCCCCCCS(=O)(=O)NCC(=O)O [HIII-56] | > 25 | MIC ([3]; read-out: MIC BCG): > 25 µg/mL |
| CCCCCCCC[S+]([O-])CC(=O)OCc1ccccc1 (stereo not shown) [HIII-206a] | 6.25 (≈ 20.1 µM) |  |
| CCCCCCCCS(=O)(=O)CC(=O)OCc1ccccc1 [HIII-206b] | 12.5 (≈ 38.3 µM) |  |
| CCCCCCCC[S+]([O-])CC(=O)OC (stereo not shown) [HIII-302] | > 25 |  |
| CCCCCCCCCCS(=O)(=O)/C=C/C(=O)OC [JRG-I-31] |  | melting point: 62 to 63 °C |
| CCCCCCCCCCS(=O)(=O)/C=C/C(=O)O [JRG-I-43] | 50 (≈ 181 µM) |  |
| CCCCCCCCCCS(=O)(=O)/C=C\C(N)=O [JRG-I-89-1] | 25 (≈ 90.8 µM) |  |
| CCCCCCCCCCS(=O)(=O)/C=C/C(N)=O [JRG-I-89-2] | 12.5 (≈ 45.4 µM) |  |
| CCCCCCCCCCS(=O)(=O)C=CC(N)=O [JRG-I-89-3] | 6.25 (≈ 22.7 µM) |  |
| CCCCCCCCCCS(=O)(=O)CC(=O)NCCO [SI-45] | 12.5 (≈ 40.7 µM) | MIC ([3]; read-out: MIC BCG): 25 µg/mL (≈ 81.3 µM) |
| CCCCCCCCCC[S+]([O-])CC(N)=O (stereo not shown) [SI-46] | 6.25 (≈ 25.3 µM) |  |
| CCCCCCCCCCS(=O)(=O)CC(=O)NCC(O)CO (stereo not shown) [SI-48] | > 25 |  |
| CC(C)CCCC(C)CCS(=O)(=O)CC(N)=O (stereo not shown) [SI-52] | 6.25 (≈ 23.7 µM) |  |
| CCCCCCCCCCS(=O)(=O)CC(N)=O [SI-73] | 3.12 (≈ 11.8 µM) | MIC ([1]; H37RV): 3.12 µg/mL (≈ 11.8 µM); MIC [6, 9]: 12.5 µg/mL (≈ 47.5 µM); MIC ([6]; dose-response curves, M. avium-intracellular): 12.50 µg/mL (≈ 47.5 µM) |
| NNC(=O)c1ccncc1 [isoniazid, reference compound] |  | isoniazid resistance level [6, 8]: > 2.5 µg/mL |
